Experimental data taken from US20130345231A1, “ANTICANCER THERAPEUTIC AGENTS” (INDIANA UNIVERSITY RESEARCH AND TECHNOLOGY CORPORATION, priority 2011, published 2013).

Tests used:
Type in all cases: cell-based
Panc-1 and Paca2 cells = assay: MTT relative cytotoxicity toward pancreatic cancer lines (statements on both lines together); conditions: 72 hours; for cytotoxicity toward pancreatic cancer lines: 12.5, 25 and 50 μM
Protocol: (§1) FIG. 7: Relative cytotoxicity of the AOH compounds docking with caPCNA toward cultured Panc-1 (A) and Paca2 (B) cells. Relative cytotoxicity was determined by a colorimetric assay (MTT) measuring cell viability following a 72 hour incubation with the compounds indicated. Cells were exposed to DMSO/saline (series 1) and 12.5 (series 2) 25 (series 3) and 50 (series 4) μM of the indicated drug dissolved in DMSO for 72 hours prior to performing the MTT assay.

Paca-2 cells = assay: MTT cell viability assay, Paca-2 cells, 72 hours
Protocol: as §1
(§2) FIG. 8: 50 μM AOH-18, AOH-20, and AOH-39 were individually incubated with exponentially growing Panc-1 or Paca-2 cells for 72 hours, after which cell viability was determined colorimetrically using MTT.

MCF-7 cells = conditions: for selectivity of toxicity, breast cancer versus non-malignant breast cells: at concentrations lower than 100 μM (10 μM), MCF7 vs MCF-10A
Protocol: The effect that a set of in silico selected compounds had on the viability of exponentially growing cultured malignant (MCF-7) and non-malignant (MCF-10A) breast cells was determined. Exponentially growing malignant (MCF-7) and non-malignant (MCF-10A) breast cells were incubated for 72 hours with 100 μM of the indicated compounds in growth media, before cell viability was determined colorimetrically using the MTT assay. […] Relative viability was determined by comparison to the viability of the cell cultures incubated in the presence of PBS/DMSO (vehicle) control instead of compound. […] Also were identified compounds that killed: both cell types with nearly equal preference; compounds that had little or no cytotoxic effect on either cell type, and compounds that preferentially killed the non-malignant breast cells.
The short- and long-term cytotoxic effects of each of the AOH compounds was determined essentially as described below for the caPeptide and related peptides, except that the initial cell based screening was determined by incubating cells for 72 hours with 100 μM of each compound. Compounds were classified into specific categories: 1) compounds that preferentially kill breast cancer but not non-malignant breast cells; 2) compounds that appear to kill both malignant and non-malignant breast cells without preference; 3) compounds that appear to have little or no toxicity toward either type of breast cell; and 4) compounds that appear to preferentially kill non-malignant breast cells. For those compounds falling into the first category, the short-term MTT viability assay was repeated using 10 μM of the selected AOH compound.
The MTT ((3-(4,5-Dimethylthiazol-2-yl)-2,5-diphenyltetrazolium bromide) assay was performed to determine the viability of cells exposed for various lengths of time to various peptide constructs containing or related to caPeptide. This assay determines the short-term affect each of the peptides has on cell viability. caPeptide's sequence is LGIPEQEY. The MTT assay was used to monitor the cytotoxic effect various caPeptides had on the viability of human MCF-7, MDA-MB436, HCC1937^(BRCA−) and HCC1937^(BRCA+) breast cancer cells. HCC1937^(BRCA−) cells harbor a hereditary mutation in the BRCA1 gene, that results in a non-functional gene product. These cells, are the parental wild-type to the HCC1937^+ cells, which express a fully functional BRCA1 human transgene. The assay was performed by seeding equal numbers of cells (5×10^3) into each of the wells of 96-well tissue culture plates for an overnight incubation to allow the cells to attach to the plates. In the morning, the cells in each of 3 individual wells were exposed to each of the various peptide constructs at the various concentrations indicated in the figures, for periods of 24, 48 and 72 hours. The MTT assay was then performed on the cells in each of the wells to determine the relative degree to which specific peptides were cytotoxic to each of these breast cancer cell lines. Percent viability at the end of the assay we determined colorimetrically by measuring the absorbance at 405 nm of the assay products formed in each well, averaging them, and then comparing the average absorbance of these assay products formed at each individual time period for each specific concentration of a specific peptide examined to the average absorbance of the 3 wells used to determine the viability of untreated cells exposed to PBS in place of peptide. These wells containing the PBS treated cells were assigned a relative viability of 100%, based upon the average absorbance of the reaction product formed in these wells, and the viability of the cells exposed to the various peptides under specific assay conditions was determined as a percentage of the absorbance produced by these PBS treated cells.

Panc-1 cells = test system: Panc-1 cells
Protocol: as §1, §2

SMILES	cytotoxicity toward pancreatic cancer lines (Panc-1 and Paca2 cells)	CC50 (MCF-7 cells)	further results
CCNC(C)c1nc2ccccc2c(=O)n1Cc1ccccc1 (stereo not shown) [AOH-1]	concentration dependent cytotoxicity	–	–
Cc1ccc(-n2c(C(C)N3CCNC(C)C3)nc3ccccc3c2=O)cc1 (stereo not shown) [AOH-16]	concentration dependent cytotoxicity	–	–
CCn1c2ccccc2c2cc(CNCc3ccccc3)ccc21 [AOH-18]	–	–	LC50 (Paca-2 cells): not achieved over the concentration range tested; relative sensitivity of MCF-7 cells among compounds (MCF-7 cells; 72 hours, MTT, rank by LC50): most sensitive; selectivity of toxicity, breast cancer versus non-malignant breast cells (MCF-7 cells): selectively toxic; loss in viability of both pancreatic cell lines (Panc-1 and Paca2 cells; at the MCF-7 LC50 concentration (~3 μM)): little or no loss in viability; LC50 (Panc-1 cells): not achieved over the concentration range tested
CC(C)(C)c1ccc(CNC2CCN(Cc3ccccc3)CC2)cc1 [AOH-20]	–	3 to 40 µM	LC50 (Paca-2 cells): not achieved over the concentration range tested; selectivity of toxicity, breast cancer versus non-malignant breast cells (MCF-7 cells): selectively toxic; LC50 (Panc-1 cells): not achieved over the concentration range tested
CCCCNC(=O)c1cc2occc2n1Cc1cc(C)ccc1C [AOH-34]	concentration dependent cytotoxicity	–	–
CCCCNC(=O)c1cc2oc(C)cc2n1Cc1cc(C)ccc1C [AOH-36]	–	3 to 40 µM	–
Cc1nc(C)c(Cc2ccccc2F)c(N2CCN(CC(O)C(C)C)CC2)n1 (stereo not shown) [AOH-52]	concentration dependent cytotoxicity	–	–
CCN(C(=O)Nc1cccc(C(F)(F)F)c1)C(C)c1nc2ccccc2c(=O)n1-c1ccc(F)cc1 (stereo not shown) [AOH-59]	concentration dependent cytotoxicity	3 to 40 µM	–
